Data from PMC3257419 (Journal of Medicinal Chemistry, 2011).

Legend:
[1] = system: cocaine-induced increases in synaptic dopamine; test: MicroPET imaging of [11C]-raclopride binding after cocaine; format: in vivo, rat; conditions: cocaine alone, average
GABA transport = conditions: cited from earlier work
alanine aminotransferase = conditions: cited from earlier work
Sprague-Dawley rats = conditions: Vigabatrin/Cocaine, vigabatrin 300 mg/kg; ref Dewey et al.[7]; cited from earlier work
[2] = system: succinic semialdehyde dehydrogenase; conditions: cited from earlier work
patients = conditions: following chronic administration; cited from earlier work
white matter of the CNS = conditions: characterized as intramyelinic edema; cited from earlier work
subjects = conditions: trial of 103 subjects, placebo 7.5%; cited from earlier work

SMILES | reduction of [11C]-raclopride binding [1] | action on GABA reuptake (GABA transport) | effect on alanine aminotransferase activity in vivo (alanine aminotransferase) | Time in chamber (min) unpaired (Sprague-Dawley rats) | effect on succinic semialdehyde dehydrogenase activity in vivo [2] | patients with visual field defects (VFDs) (patients) | implicit times of the ERGs (Wistar albino rats; CPP-115 20 mg/kg, vigabatrin 200 mg/kg) | clinical observation in the first three weeks of treatment (Wistar albino rats; CPP-115 20 mg/kg, vigabatrin 200 mg/kg daily i.p.) | 10 Hz flicker ERGs compared to both CPP-115 and controls (Wistar albino rats; both sexes, both time points, data not shown) | rod, mesopic, and cone b-wave implicit times compared to controls or CPP-115 (Wistar albino rats; females, 200 mg/kg, data not shown) | CNS histopathological finding (white matter of the CNS) | subjects who achieved abstinence (subjects)
COC(=O)[C@H]1[C@@H](OC(=O)c2ccccc2)C[C@@H]2CC[C@H]1N2C [Cocaine, reference compound] | 22% | – | – | – | – | – | – | – | – | – | – | –
C=CC(N)CCC(=O)O (stereo not drawn) [Vigabatrin, vigabatrin] | – | GABA reuptake inhibitor | reduce activities | 7.1 ± 0.6 min | reduce activities | 25–50% | little or no drug effect | sedative effects | significantly lower | significantly increased | microvacuolization in the white matter of the CNS | 28%
